Reference: article PMC6278385, “Preclinical Pharmacokinetics of C118P, a Novel Prodrug of Microtubules Inhibitor and Its Metabolite C118 in Mice, Rats, and Dogs” (Molecules, 2018)

Assay: Excretion in rats (bile, urine, feces)
Format: in vivo
Conditions: i.v. C118P 20 mg/kg
Description: Twelve rats (weight 220–260 g) with half males and half females were anesthetized with diethyl ether after fasted overnight. A median laparotomy was performed and the bile duct was cannulated with a catheter. After intravenous administration (20 mg/kg) of C118P solution, bile samples were collected at 1, 2, 4, 6, 10 and 24 h in EDTA-coated tubes. The accurate volume of bile samples were measured by weight loss method. A volume of 50 μL of bile was prepared by protein precipitation and determined by the method described above. The total cumulative molar excretion percentage of C118P and C118 in bile of ten rats was calculated according to the total molar amount of C118P and C118 and the dose.
Six rats (weight 200–230 g) with half males and half females were fasted overnight. After intravenous administration (20 mg/kg), urine and feces samples were collected at 12, 24, 36, 48, 60 and 72 h. The feces were collected in 200 mL of EDTA solution (100 mg/mL) and grinded into a suspension. The accurately volume amount of urine and feces samples were measured by weight loss method. A volume of 50 μL of urine or feces suspension was prepared by protein precipitation and determined by the method described above. The cumulative molar excretion percentage of C118P and C118 in urine or feces was calculated according to the concentrations of C118P and C118, the volume of each time period.

In the case of `COc1cc(OC)cc(-c2nc[nH]c2-c2ccc(OC)c(OP(=O)([O-])[O-])c2)c1.[Na+].[Na+]` [C118P], the “sulfuric acid conjugation in urine” value is reported as “no sulfuric acid conjugation was found”.
